Read-outs that look alike come from different tables or passages of the source. A value given as a limit tells only on which side of the number the result lay.

One assay concerns GSK3. To be noted: cited from earlier work.
For another assay, the system named is MSC80 cells. As to the kind of experiment: Western blot of MPZ, PMP22 and β-catenin proteins in MSC80 cells. To be noted: SB216763 10 µM, after 3h, lasted until 24h. Type of assay: cell-based, mouse. The text has this:
Western blot analysis confirmed the stimulation of MPZ and PMP22 expression. […] This difference may be due to specific mRNA and protein half-life.
The increase in PMP22 protein expression was timedependent.

Setting [1] is: GSK3 inhibitors, see Meijer L et al, Trends in Pharmacological Sciences 2004.

As to `OCCCNc1cc(-c2ccnc(Nc3cccc(Cl)c3)n2)ccn1` [CGP60474, 3-{4-[2-(3-chlorophenylamino)-pyrimidin-4-yl]-pyridin-2-yl-amino}-propanol], the IC50 with GSK3 (setting [1]) was under 100 nM.

For the compound `Cn1cc(C2=C(c3ccc(Cl)cc3Cl)C(=O)NC2=O)c2ccccc21` [SB216763], in the assay with MSC80 cells, the “expression of MPZ protein (Western blot)” value is listed as “enhanced”, the “expression of PMP22 protein (Western blot)” value is on record as “enhanced” and the “expression of β-catenin protein (Western blot)” value was “enhanced”. Moreover, the IC50 with GSK3 (setting [1]) was […].

Take `[H]/N=C(/N)SCCCn1cc(C2=C(c3cn(C)c4ccccc34)C(=O)NC2=O)c2ccccc21` [Ro318220]: the concentration for half-maximal inhibition (IC50) in the assay on GSK3 (setting [1]) was under 100 nM.

In the case of `Nc1cccc(-c2cc3c(Oc4cccc(O)c4)ncnc3[nH]2)c1` [TWS119], the IC50 in the assay on GSK3 (setting [1]) was under 100 nM.

Consider `Cc1c[nH]c(-c2cnc(NCCNc3ccc(C#N)cn3)nc2-c2ccc(Cl)cc2Cl)n1` [CHIR99021], for which the IC50 in the assay on GSK3 (setting [1]) was […].

On to `CC(=O)O/N=C1/C(=C2/C(=O)Nc3cc(Br)ccc32)Nc2ccccc21` [6-bromoindirubin-3'acetoxime, (2'Z,3'E)-6-Bromoindirubin-3'-acetoxime], for which the IC50 in the assay on GSK3 (setting [1]) is under 100 nM.

As to CHIR98014, the IC50 in the assay with GSK3 is under 100 nM.

Values taken from patent EP2305274A1, “Use of WNT stimulators for treating demyelinating diseases” (Centre National de la Recherche Scientifique (CNRS), priority 2009, dated 2011).
